Legend:
IKZF2 [1] = target: T1, IKZF2 (Homo sapiens (Human), UniProt Q96SW2+Q9UKS7); assay: In vitro IKZF2 FACS Assay in Jurkat cells; assay type: cell-based; settings: 24 hrs; for DC50: half maximal degradation concentration; for Dmax: maximal degradation percentage
Procedure: In vitro IKZF2 FACS Assay
DC50, A: <1 nM; B: 1-10 nM; C: 10-100 nM; D: 100-1000 nM; E: >1000 nM. Dmax, A: >80%; B: 60-80%; C: 40-60%; D: 20-40%; E: <20%.

CRBN/DDB1 = CRBN/DDB1 (Homo sapiens (Human), UniProt Q96SW2); assay: IC50 measurements for binding to CRBN/DDB1 (HTRF); settings: His tagged CRBN+DDB, Cy5-labeled Thalidomide probe, one hour
Sequence of CRBN/DDB1 (Q96SW2 whole entry, species assumed): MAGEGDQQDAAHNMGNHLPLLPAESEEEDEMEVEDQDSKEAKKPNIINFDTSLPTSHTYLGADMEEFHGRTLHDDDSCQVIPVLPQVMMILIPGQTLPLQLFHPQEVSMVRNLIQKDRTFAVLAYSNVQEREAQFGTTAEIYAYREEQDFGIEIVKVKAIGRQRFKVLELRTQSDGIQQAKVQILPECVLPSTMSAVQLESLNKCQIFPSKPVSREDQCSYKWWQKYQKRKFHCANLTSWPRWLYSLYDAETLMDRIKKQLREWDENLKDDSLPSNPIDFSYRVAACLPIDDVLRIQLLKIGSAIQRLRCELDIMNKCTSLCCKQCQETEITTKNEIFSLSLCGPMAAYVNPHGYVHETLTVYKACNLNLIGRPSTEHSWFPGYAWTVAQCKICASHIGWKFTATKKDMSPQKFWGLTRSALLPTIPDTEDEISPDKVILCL
Sequence of CRBN/DDB1 (Q16531 whole entry partner, species assumed): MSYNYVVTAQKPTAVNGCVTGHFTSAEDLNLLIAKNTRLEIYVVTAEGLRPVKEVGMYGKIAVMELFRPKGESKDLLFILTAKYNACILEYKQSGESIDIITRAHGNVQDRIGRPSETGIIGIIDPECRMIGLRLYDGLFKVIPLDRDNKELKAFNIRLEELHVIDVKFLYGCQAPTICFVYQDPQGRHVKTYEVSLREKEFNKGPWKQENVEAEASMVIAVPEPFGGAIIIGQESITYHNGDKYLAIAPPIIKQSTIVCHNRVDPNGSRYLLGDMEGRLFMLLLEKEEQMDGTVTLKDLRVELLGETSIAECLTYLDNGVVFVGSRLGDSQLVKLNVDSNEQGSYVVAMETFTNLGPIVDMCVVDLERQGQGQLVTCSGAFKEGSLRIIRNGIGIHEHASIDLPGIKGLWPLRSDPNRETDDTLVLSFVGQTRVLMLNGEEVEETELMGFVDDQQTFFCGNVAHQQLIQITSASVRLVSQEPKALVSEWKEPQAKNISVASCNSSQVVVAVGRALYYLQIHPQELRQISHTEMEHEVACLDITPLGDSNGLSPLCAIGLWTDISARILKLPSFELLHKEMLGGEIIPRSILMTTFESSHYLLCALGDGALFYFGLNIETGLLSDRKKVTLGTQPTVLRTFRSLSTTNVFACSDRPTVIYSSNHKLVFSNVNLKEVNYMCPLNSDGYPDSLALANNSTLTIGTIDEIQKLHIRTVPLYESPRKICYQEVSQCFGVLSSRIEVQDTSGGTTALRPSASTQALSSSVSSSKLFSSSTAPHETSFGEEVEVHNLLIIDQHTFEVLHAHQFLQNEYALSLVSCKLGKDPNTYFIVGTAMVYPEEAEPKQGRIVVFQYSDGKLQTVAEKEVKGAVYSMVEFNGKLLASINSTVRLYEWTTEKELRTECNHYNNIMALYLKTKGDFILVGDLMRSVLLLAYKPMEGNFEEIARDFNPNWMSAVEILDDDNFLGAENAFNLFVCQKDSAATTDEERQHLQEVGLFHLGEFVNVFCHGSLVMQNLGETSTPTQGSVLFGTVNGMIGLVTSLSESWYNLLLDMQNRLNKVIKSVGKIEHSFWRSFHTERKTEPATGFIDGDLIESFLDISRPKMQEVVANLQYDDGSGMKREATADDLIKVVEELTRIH
How it was run: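 HTRF competition binding with 2 nM His-tagged CRBN-DDB1 complex, 60 nM Cy5-thalidomide probe and 0.4 nM anti-His Tb cryptate in 50 mM HEPES pH 7.5, 1 mM TCEP, 0.01% Brij-35, 50 mM NaCl, 0.1% BSA. Read after 1 h at room temperature; IC50 from four-parameter dose-response fit.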

IKZF1 = IKZF1 (Homo sapiens (Human), UniProt Q13422+Q96SW2); assay: In vitro IKZF1 HiBit Assay (HEK293T Flp-in-HiBiT-IKZF1 stable cell line); assay type: cell-based; settings: HEK293T Flp-in-HiBiT-IKZF1 stable cell line, 6 hrs incubation; for DC50: read-out: IKZF1 HiBit DC50; for Dmax: HEK-293T, read-out: IKZF1 HiBit Dmax (%)
Sequence of IKZF1 (Q13422 whole entry): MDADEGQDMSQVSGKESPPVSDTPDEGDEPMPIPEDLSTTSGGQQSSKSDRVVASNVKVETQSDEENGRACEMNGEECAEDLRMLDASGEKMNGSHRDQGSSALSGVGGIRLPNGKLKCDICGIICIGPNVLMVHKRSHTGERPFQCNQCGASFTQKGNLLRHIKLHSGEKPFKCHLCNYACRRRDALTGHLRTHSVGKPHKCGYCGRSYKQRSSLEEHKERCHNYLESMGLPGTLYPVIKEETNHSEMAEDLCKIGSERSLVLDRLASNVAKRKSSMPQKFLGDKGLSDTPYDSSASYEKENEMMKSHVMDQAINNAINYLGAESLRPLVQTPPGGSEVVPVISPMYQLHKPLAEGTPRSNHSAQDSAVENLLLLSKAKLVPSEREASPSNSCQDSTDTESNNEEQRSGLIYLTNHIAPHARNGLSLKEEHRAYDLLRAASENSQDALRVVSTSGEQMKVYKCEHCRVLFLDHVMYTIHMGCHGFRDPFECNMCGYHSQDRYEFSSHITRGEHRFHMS
Sequence of IKZF1 (Q96SW2 whole entry): as the sequence (Q96SW2 whole entry, species assumed) above
Sequence of IKZF1 (Q16531 2-1140 partner): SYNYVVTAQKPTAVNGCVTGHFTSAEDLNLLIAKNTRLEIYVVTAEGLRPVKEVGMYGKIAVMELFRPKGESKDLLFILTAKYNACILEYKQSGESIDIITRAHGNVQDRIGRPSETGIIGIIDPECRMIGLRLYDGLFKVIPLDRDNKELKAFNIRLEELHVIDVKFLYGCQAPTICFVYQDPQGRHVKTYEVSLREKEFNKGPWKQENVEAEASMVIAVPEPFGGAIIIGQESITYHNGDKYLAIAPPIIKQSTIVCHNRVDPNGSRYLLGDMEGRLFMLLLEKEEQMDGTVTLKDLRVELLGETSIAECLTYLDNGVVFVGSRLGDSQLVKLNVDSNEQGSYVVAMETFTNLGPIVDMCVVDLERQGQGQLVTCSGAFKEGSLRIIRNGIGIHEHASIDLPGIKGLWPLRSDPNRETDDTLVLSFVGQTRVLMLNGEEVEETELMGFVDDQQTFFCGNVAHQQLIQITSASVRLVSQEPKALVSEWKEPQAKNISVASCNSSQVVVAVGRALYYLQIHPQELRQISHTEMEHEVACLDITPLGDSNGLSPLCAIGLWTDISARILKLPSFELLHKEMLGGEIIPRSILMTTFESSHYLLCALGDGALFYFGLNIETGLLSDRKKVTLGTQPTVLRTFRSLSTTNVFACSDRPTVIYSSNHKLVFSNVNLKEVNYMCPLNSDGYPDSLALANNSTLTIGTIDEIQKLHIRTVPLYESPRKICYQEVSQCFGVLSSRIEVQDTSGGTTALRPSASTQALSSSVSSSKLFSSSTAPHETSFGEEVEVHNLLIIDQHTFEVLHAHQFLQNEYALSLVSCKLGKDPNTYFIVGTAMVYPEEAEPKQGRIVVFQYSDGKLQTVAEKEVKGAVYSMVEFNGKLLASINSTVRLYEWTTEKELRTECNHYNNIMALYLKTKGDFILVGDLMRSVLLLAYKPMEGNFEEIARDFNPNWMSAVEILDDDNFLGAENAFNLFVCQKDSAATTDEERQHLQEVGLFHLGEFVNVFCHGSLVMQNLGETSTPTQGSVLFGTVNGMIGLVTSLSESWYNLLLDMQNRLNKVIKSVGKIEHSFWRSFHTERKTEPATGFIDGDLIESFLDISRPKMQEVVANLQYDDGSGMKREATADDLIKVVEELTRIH
How it was run: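 HEK293T Flp-in cells carrying N-terminal HiBiT-tagged IKZF1 were exposed to compound (0.1% DMSO) for 6 h at 3000 cells/well. HiBiT luminescence was read after lytic LgBiT detection. DC50 and Dmax were taken from DMSO-normalized dose-response curves.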

IKZF2 [2] = target: T1, IKZF2; assay: In vitro IKZF2 HiBit Assay (HEK293T Flp-in-HiBiT cells); assay type: cell-based; settings: HEK293T Flp-in-HiBiT cells, 6 hrs incubation; for DC50: read-out: IKZF2 HiBit DC50; for Dmax: HEK-293T, read-out: IKZF2 HiBit Dmax (%)
How it was run: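 HEK293T Flp-in cells carrying an endogenous N-terminal HiBiT tag on IKZF2 were exposed to compound for 6 h at 0.1% DMSO. The dilution series was 11 doses at 3-fold, diluted from 1 mM. Nano-Glo HiBiT lytic luminescence, normalized to DMSO, gave DC50 for 50% degradation and Dmax across the concentration range, both reported in letter bins.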

T1 sequence (Q9UKS7 whole entry): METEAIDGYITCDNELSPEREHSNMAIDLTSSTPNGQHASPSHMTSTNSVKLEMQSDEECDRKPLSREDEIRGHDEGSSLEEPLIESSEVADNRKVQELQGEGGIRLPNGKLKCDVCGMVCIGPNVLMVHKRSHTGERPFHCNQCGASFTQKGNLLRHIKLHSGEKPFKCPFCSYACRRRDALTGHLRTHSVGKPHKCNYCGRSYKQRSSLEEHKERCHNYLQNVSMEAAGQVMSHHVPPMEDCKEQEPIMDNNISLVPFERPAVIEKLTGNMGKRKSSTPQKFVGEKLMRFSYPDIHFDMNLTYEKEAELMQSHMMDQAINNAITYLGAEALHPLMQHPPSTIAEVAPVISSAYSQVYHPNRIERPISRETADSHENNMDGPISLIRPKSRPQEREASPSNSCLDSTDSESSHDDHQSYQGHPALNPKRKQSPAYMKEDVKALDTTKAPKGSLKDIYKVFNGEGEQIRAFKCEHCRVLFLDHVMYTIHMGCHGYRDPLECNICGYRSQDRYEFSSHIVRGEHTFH
T1 sequence (Q96SW2 whole entry): as the sequence (Q96SW2 whole entry, species assumed) above
T1 sequence (Q16531 2-1140 partner): as the sequence (Q16531 2-1140 partner) above

Structure (SMILES)	DC50 (IKZF2 [1])	Dmax (IKZF2 [1])	DC50 (IKZF1)	Dmax (IKZF1)	DC50 (IKZF2 [2])	Dmax (IKZF2 [2])	IC50 (CRBN/DDB1)
C[C@H](NCc1cc(-c2ccc3c(c2)CN(C2CCC(=O)NC2=O)C3=O)n2cncc2c1)c1ccccc1 (single isomer, unassigned) [Example 14, 3-(1-oxo-5-(7-((((S*)-1-phenylethyl)amino)methyl)imidazo[1,5-a]pyridin-5-yl)isoindolin-2-yl) piperidine-2,6-dione]	10 to 100 nM	40 to 60%	–	–	–	–	100 to 500 nM
C[C@@H](c1ccccc1)N(C)Cc1cc(-c2ccc3c(c2)CN(C2CCC(=O)NC2=O)C3=O)n2cncc2c1 (single isomer, unassigned) [Example 15, 3-(5-(7-((methyl ((S*)-1-phenylethyl)amino)methyl)imidazo[1,5-a]pyridin-5-yl)-1-oxoisoindolin-2-yl) piperidine-2,6-dione]	10 to 100 nM	20 to 40%	–	–	–	–	1000 to 5000 nM
C[C@@H](NCc1cc(-c2ccc3c(c2)CN(C2CCC(=O)NC2=O)C3=O)n2cncc2c1)c1ccccc1 (single isomer, unassigned) [Example 16, 3-(1-oxo-5-(7-((((R*)-1-phenylethyl)amino)methyl)imidazo[1,5-a]pyridin-5-yl)isoindolin-2-yl) piperidine-2,6-dione]	10 to 100 nM	40 to 60%	–	–	–	–	500 to 1000 nM
C[C@H](c1ccccc1)N(C)Cc1cc(-c2ccc3c(c2)CN(C2CCC(=O)NC2=O)C3=O)n2cncc2c1 (single isomer, unassigned) [Example 17, 3-(5-(7-((methyl ((R*)-1-phenylethyl)amino)methyl)imidazo[1,5-a]pyridin-5-yl)-1-oxoisoindolin-2-yl) piperidine-2,6-dione]	10 to 100 nM	20 to 40%	–	–	–	–	1000 to 5000 nM
CC(C)Nc1n[nH]c2c(CN3CC4(CCOCC4)C3)cc(-c3ccc4c(c3F)CN(C3CCC(=O)NC3=O)C4=O)nc12 (stereo not drawn) [Example 289, 3-(5-(7-((7-oxa-2-azaspiro[3.5]nonan-2-yl)methyl)-3-(isopropylamino)-1H-pyrazolo[4,3-b]pyridin-5-yl)-4-fluoro-1-oxoisoindolin-2-yl) piperidine-2,6-dione]	1 to 10 nM	> 80%	10 to 100 nM	40 to 60%	1 to 10 nM	> 80%	–
CC1c2cc(-c3cc(CN4CCCC4)c4ccn(C5CS(=O)(=O)C5)c4n3)ccc2C(=O)N1C1CCC(=O)NC1=O (stereo not drawn) [Example 292, 3-(5-(1-(1,1-dioxidothietan-3-yl)-4-(pyrrolidin-1-ylmethyl)-1H-pyrrolo[2,3-b]pyridin-6-yl)-3-methyl-1-oxoisoindolin-2-yl) piperidine-2,6-dione]	1 to 10 nM	> 80%	10 to 100 nM	20 to 40%	1 to 10 nM	> 80%	–
CC(C)Nc1n[nH]c2c(CN3CCCC3)cc(-c3ccc4c(c3)C(C)N(C3CCC(=O)NC3=O)C4=O)nc12 (stereo not drawn) [Example 293, 3-(5-(3-(isopropylamino)-7-(pyrrolidin-1-ylmethyl)-1H-pyrazolo[4,3-b]pyridin-5-yl)-3-methyl-1-oxoisoindolin-2-vl) piperidine-2,6-dione]	1 to 10 nM	> 80%	> 10000 nM	< 20%	1 to 10 nM	> 80%	–

Further lines, with some results ahead:

DC50 (IKZF2 [1])	Dmax (IKZF2 [1])	DC50 (IKZF1)	Dmax (IKZF1)	DC50 (IKZF2 [2])	Dmax (IKZF2 [2])	Structure (SMILES)	IC50 (CRBN/DDB1)
10 to 100 nM	> 80%	1000 to 10000 nM	20 to 40%	1 to 10 nM	> 80%	CC(C)Nc1n[nH]c2c(CN3CCC(F)CC3)cc(-c3ccc4c(c3F)CN(C3CCC(=O)NC3=O)C4=O)nc12 (stereo not drawn) [Example 282, 3-(4-fluoro-5-(7-((4-fluoropiperidin-1-yl)methyl)-3-(isopropylamino)-1H-pyrazolo[4,3-b]pyridin-5-yl)-1-oxoisoindolin-2-yl) piperidine-2,6-dione]	–
1 to 10 nM	> 80%	> 10000 nM	< 20%	1 to 10 nM	> 80%	COC1CCN(Cc2cc(-c3ccc4c(c3F)CN(C3CCC(=O)NC3=O)C4=O)nc3c(NC(C)C)n[nH]c23)CC1 (stereo not drawn) [Example 283, 3-(4-fluoro-5-(3-(isopropylamino)-7-((4-methoxypiperidin-1-yl)methyl)-1H-pyrazolo[4,3-b]pyridin-5-yl)-1-oxoisoindolin-2-yl) piperidine-2,6-dione]	–
10 to 100 nM	60 to 80%	10 to 100 nM	20 to 40%	1 to 10 nM	> 80%	CC(C)Nc1n[nH]c2c(CN3CCC4(CC3)COC4)cc(-c3ccc4c(c3F)CN(C3CCC(=O)NC3=O)C4=O)nc12 (stereo not drawn) [Example 284, 3-(5-(7-((2-oxa-7-azaspiro[3.5]nonan-7-yl)methyl)-3-(isopropylamino)-1H-pyrazolo[4,3-b]pyridin-5-yl)-4-fluoro-1-oxoisoindolin-2-yl) piperidine-2,6-dione]	–
10 to 100 nM	60 to 80%	> 10000 nM	< 20%	1 to 10 nM	> 80%	CC(C)Nc1n[nH]c2c(CN3CC4COCC4C3)cc(-c3ccc4c(c3F)CN(C3CCC(=O)NC3=O)C4=O)nc12 (stereo not drawn) [Example 288, 3-(4-fluoro-5-(3-(isopropylamino)-7-((tetrahydro-1H-furo[3,4-c]pyrrol-5 (3H)-yl)methyl)-1H-pyrazolo[4,3-b]pyridin-5-yl)-1-oxoisoindolin-2-yl) piperidine-2,6-dione]	–
10 to 100 nM	60 to 80%	> 10000 nM	< 20%	1 to 10 nM	60 to 80%	CC(C)Nc1n[nH]c2c(CN3CCC(C(F)(F)F)CC3)cc(-c3ccc4c(c3F)CN(C3CCC(=O)NC3=O)C4=O)nc12 (stereo not drawn) [Example 290, 3-(4-fluoro-5-(3-(isopropylamino)-7-((4-(trifluoromethyl)piperidin-1-yl)methyl)-2H-pyrazolo[4,3-b]pyridin-5-yl)-1-oxoisoindolin-2-yl) piperidine-2,6-dione]	–
< 1 nM	> 80%	10 to 100 nM	40 to 60%	< 1 nM	> 80%	CCNc1n[nH]c2c(CN3CCCC3)cc(-c3ccc4c(c3F)CN(C3CCC(=O)NC3=O)C4=O)nc12 (stereo not drawn) [Example 291, 3-(5-(3-(ethylamino)-7-(pyrrolidin-1-ylmethyl)-1H-pyrazolo[4,3-b]pyridin-5-yl)-4-fluoro-1-oxoisoindolin-2-yl) piperidine-2,6-dione]	–
1 to 10 nM	> 80%	10 to 100 nM	40 to 60%	< 1 nM	> 80%	O=C1CCC(N2Cc3c(ccc(-c4cc(CN5CCCC5)c5[nH]nc(NC6CCC6)c5n4)c3F)C2=O)C(=O)N1 (stereo not drawn) [Example 295, 1.3-(5-(3-(cyclobutylamino)-7-(pyrrolidin-1-ylmethyl)-1H-pyrazolo[4,3-b]pyridin-5-yl)-4-fluoro-1-oxoisoindolin-2-yl) piperidine-2,6-dione]	–
1 to 10 nM	> 80%	10 to 100 nM	60 to 80%	1 to 10 nM	> 80%	Nc1[nH]nc2c(CN3CCCC3)cc(-c3ccc4c(c3F)CN(C3CCC(=O)NC3=O)C4=O)nc12 (stereo not drawn) [Example 318, 3-(5-(3-amino-7-(pyrrolidin-1-ylmethyl)-2H-pyrazolo[4,3-b]pyridin-5-yl)-4-fluoro-1-oxoisoindolin-2-yl) piperidine-2,6-dione]	–
